Consider 2 compounds from patent US20120184504A1, “"The Use of a PAR-1 Antagonist in Combination with a P2Y12 ADP Receptor Antagonist for Inhibition of Thrombosis"” (priority 2009, published 2012).

The subject of assay [1] is platelet-dependent thrombus formation (cyclic flow reductions). The assay is described as follows: Folts model of thrombosis: cyclic flow reductions (CFRs) in the carotid artery. The conditions noted are these: for EC50 (dose regimen needed for 50% reduction in CFRs): from dose-response curve, Inhibitory Effect Emax model. In kind it is in vivo, cynomolgus monkeys. The text has this:
The procedures used in this study are similar to the acute artery occlusion model developed by Folts and others. (Cook J J, Sitko G R, Bednar B, Condra C, Mellott M J, Feng D M, Nutt R F, Shafer J A, Gould R J, Connolly T M. An antibody against the exosite of the cloned thrombin receptor inhibits experimental arterial thrombosis in the African green monkey. Circulation. 1995; 91:2961-2971. Folts J. An in vivo model of experimental arterial stenosis, intimal damage, and periodic thrombosis. Circulation. 1991; 83(Suppl):IV3-IV14. Mousa S A, DeGrado W F, Mu D X, Kapil R P, Lucchesi B R, Reilly T M. Oral antiplatelet, antithrombotic efficacy of DMP 728, a novel platelet GPIIb/IIIa antagonist. Circulation. 1996; 93:537-543. Wu D, Vanhoorelbeke K, Cauwenberghs N, Meiring M, Depraetere H, Kotze H F, Deckmyn H. Inhibition of the von Willebrand (VWF)-collagen interaction by an antihuman VWF monoclonal antibody results in abolition of in vivo arterial platelet thrombus formation in baboons. Blood. 2002; 99:3623-3628).
Cynomolgus monkeys were sedated with ketamine HCl (10 mg/kg, IM) followed by anesthetization with sodium pentobarbital 20 mg/kg i.v. bolus and an infusion of 5 mg/kg/h i.v. for the duration of the experiment. Body temperature was maintained at 37°-39° C., and fluids infused were warmed to body temperature. The right carotid artery was exposed and dissected free of surrounding tissue, and a transonic flow probe of appropriate size was placed around the vessel. A Lexan constrictor (5 mm length) was placed onto the carotid artery. The constrictor was sized to abolish reactive hyperemia and to reduce mean carotid blood flow by no more than 50%-60%. Mechanical damage to the endothelium was induced in the constricted segment of the artery. Cyclic flow reductions due to platelet-dependent thrombus formation occurred shortly after placement of the constrictor over the region of endothelial damage. These gradual declines in carotid blood flow were occasionally interrupted spontaneously, but frequently required manual restoration by gently shaking the vessel. Flow reductions would typically return in 3-4 minutes. CFR frequency was calculated as the number of such cycles (CFRs) over a 30-minute period. On the basis of pilot studies, CFRs were evaluated in a maximum of four consecutive 30-minute collection periods, and mechanically mediated endothelial injury was performed at 30-minute intervals to ensure exposure of the thrombogenic endothelium.
Animals instrumented to produce CFRs were administered SCH 602539, cangrelor, or a combination of SCH 602539 and cangrelor. The dosing regimens of SCH 602539 were selected to provide a broad range of inhibition of platelet aggregation induced by 1 μM thrombin receptor agonist peptide (TRAP), whereas the doses of cangrelor were selected to achieve 50%-60% inhibition of platelet aggregation induced by 10 μM ADP (the degree of inhibition obtained with clopidogrel). Group 1 received drug vehicle only (20% hydroxypropyl betacyclodextran or saline, 2 mL i.v.). Group 2 received SCH 602539 dissolved in 20% hydroxypropyl betacyclodextran administered as sequential i.v. boluses of 0.1, 0.3, or 1 mg/kg, at 30-minute intervals. Group 3 received cangrelor dissolved in saline and administered as an intravenous infusion of 0.1, 0.2, or 0.3 μg/kg/min for 30 minutes each. Group 4 received a combination of SCH 602539 bolus plus cangrelor infusion (at respective doses of: 1) 0.05 mg/kg+0.05 μg/kg/min; 2) 0.1 mg/kg+0.1 μg/kg/min; and 3) 0.15 mg/kg+0.1 μg/kg/min. The three dose regimens within each group were administered sequentially over the consecutive 30-minute periods coinciding with the re-induction of endothelial injury. […]

The test system of assay [2] is platelet aggregation induced by TRAP (3 μM). The assay is described as follows: Ex vivo whole blood platelet aggregation induced by TRAP. Format: in vivo, cynomolgus monkeys. The method, then:
Animals instrumented to produce CFRs were administered SCH 602539, cangrelor, or a combination of SCH 602539 and cangrelor. The dosing regimens of SCH 602539 were selected to provide a broad range of inhibition of platelet aggregation induced by 1 μM thrombin receptor agonist peptide (TRAP), whereas the doses of cangrelor were selected to achieve 50%-60% inhibition of platelet aggregation induced by 10 μM ADP (the degree of inhibition obtained with clopidogrel). Group 1 received drug vehicle only (20% hydroxypropyl betacyclodextran or saline, 2 mL i.v.). Group 2 received SCH 602539 dissolved in 20% hydroxypropyl betacyclodextran administered as sequential i.v. boluses of 0.1, 0.3, or 1 mg/kg, at 30-minute intervals. Group 3 received cangrelor dissolved in saline and administered as an intravenous infusion of 0.1, 0.2, or 0.3 μg/kg/min for 30 minutes each. Group 4 received a combination of SCH 602539 bolus plus cangrelor infusion (at respective doses of: 1) 0.05 mg/kg+0.05 μg/kg/min; 2) 0.1 mg/kg+0.1 μg/kg/min; and 3) 0.15 mg/kg+0.1 μg/kg/min. The three dose regimens within each group were administered sequentially over the consecutive 30-minute periods coinciding with the re-induction of endothelial injury. Study drug or vehicle was administered after stable CFRs were achieved, and upon the completion of a 30-minute baseline CFR collection period, drug(s) or vehicle were administered incrementally (every 30 minutes) either as a bolus (SCH 602539) or as an infusion (cangrelor), and their effects on CFRs were monitored in the next three 30-minute observation periods. Blood samples (3 mL) were collected from the femoral arterial catheter at the end of each 30-minute observation period for assessment of ex vivo platelet aggregation and coagulation parameters.
Platelet aggregation studies were performed ex viva on blood samples obtained from the monkeys subjected to the Folts model, using a ChronoLog whole blood aggregometer (Model 540VS, Havertown, Pa.). Briefly, 0.5 mL of blood was incubated with 0.5 mL of normal saline at 37° C. in a cuvette containing a stir bar for 2 minutes. Platelet agonists used in this study included TRAP (3 μM), ADP (10 μM), the thromboxane A2 mimetic U46619 (10 μM), and collagen (3 μg/mL). Platelet aggregation was monitored for 5 minutes following the addition of the agonist. The peak aggregation response was recorded in ohms. In addition, standard coagulation parameters, including prothrombin time (PT), activated partial thromboplastin time (APTT), and activated clotting time (ACT), were assessed.

Take `CSCCNc1nc(SCCC(F)(F)F)nc2c1ncn2[C@@H]1O[C@H](COP(=O)(O)OP(=O)(O)C(Cl)(Cl)P(=O)(O)O)[C@@H](O)[C@H]1O` [Cangrelor]: the CFRs in assay [1] (Cangrelor 0.1 μg/kg/min i.v. infusion 30 min, per 30-minute period, baseline 9.5 + 0.9) is recorded as 5.7 + 1.5; in assay [1] (Cangrelor 0.2 μg/kg/min i.v. infusion 30 min, baseline 9.5 + 0.9) it was 3.2 + 1.7; in assay [1] (Cangrelor 0.3 μg/kg/min i.v. infusion 30 min, baseline 9.5 + 0.9), 1.2 + 1.3. Also, the “CFR frequency reduced from baseline” value is “approximately 40%” in assay [1] (cangrelor 0.1 μg/kg/min 30-minute infusion); roughly 70% in assay [1] (cangrelor 0.2 μg/kg/min 30-minute infusion, significant versus vehicle); roughly 90% in assay [1] (cangrelor 0.3 μg/kg/min 30-minute infusion, significant versus vehicle). For the same compound, the results for the “animals in which CFRs were completely prevented” value in assay [1] (cangrelor highest dose (0.3 μg/kg/min)) and in assay [1] (cangrelor intermediate dose (0.2 μg/kg/min)) were 5/6 and 3/6, respectively. Besides, the “complete suppression of CFRs” value in assay [1] (cangrelor lowest dose (0.1 μg/kg/min)) is on record as “No complete suppression”. The “EC50 (dose regimen needed for 50% reduction in CFRs)” value in assay [1] (i.v. infusion) was determined as 0.099 ± 0.039 µg/kg/min. The “Aggregation, TRAP” value in assay [2] (Cangrelor 0.1 μg/kg/min, baseline 13 ± 3) was 12 ± 3 ohms; in assay [2] (Cangrelor 0.2 μg/kg/min, baseline 13 ± 3) it was 12 ± 3 ohms; in assay [2] (Cangrelor 0.3 μg/kg/min, baseline 13 ± 3), 9 ± 3 ohms. In assay [2] (cangrelor 0.2 and 0.3 μg/kg/min), the “effect on aggregation stimulated by 3 μM TRAP” value is listed as “did not interfere”.

As for `CCOC(=O)N[C@@H]1CC[C@@H]2[C@@H](C1)C[C@H]1C(=O)O[C@H](C)[C@H]1[C@H]2/C=C/c1ccc(-c2ccccn2)cn1` [SCH 602539], the “CFR frequency reduced from baseline” value in assay [1] (SCH 602539 0.1 mg/kg i.v. bolus) was “approximately 50%”; in assay [1] (SCH 602539 0.3 mg/kg i.v. bolus, P<0.05 versus vehicle) it was greater than 80%; in assay [1] (SCH 602539 1.0 mg/kg i.v. bolus, P<0.05 versus vehicle) it was greater than 80%. Besides, the CFRs in assay [1] (SCH 602539 0.1 mg/kg i.v. bolus, CFRs per 30-minute period, baseline 8.7 + 0.6) is given as 4.3 + 1.3; in assay [1] (SCH 602539 0.3 mg/kg i.v. bolus, per 30-minute period, baseline 8.7 + 0.6), 1.7 + 1.2; in assay [1] (SCH 602539 1.0 mg/kg i.v. bolus, per 30-minute period, baseline 8.7 + 0.6), 1.8 + 1.3. Moreover, the “animals in which CFRs were completely abolished” value in assay [1] (SCH 602539 0.3 mg/kg) and in assay [1] (SCH 602539 1.0 mg/kg) was 4 of 6 each time. For the same compound, the “EC50 (dose regimen needed for 50% reduction in CFRs)” value in assay [1] (i.v. bolus) amounted to 0.10 ± 0.042 mg/kg. Also, the “Aggregation, TRAP” value in assay [2] (SCH 602539 0.1 mg/kg, baseline 14 ± 3) amounted to 9 ± 4 ohms; in assay [2] (SCH 602539 0.3 mg/kg, baseline 14 ± 3), 2 ± 2 ohms. The “inhibition of ex vivo platelet aggregation induced by 3 μM TRAP” value in assay [2] (two highest doses of SCH 602539 (0.3 mg/kg and 1 mg/kg)) is recorded as greater than 80%.
